Tests used:
Experiment in all cases: cells
[1] = tested on: COLO-829; format: functional, cell-based, Homo sapiens; conditions: Homo sapiens, COLO-829
Description: SANGER: Inhibition of human COLO-829 cell growth in a cell viability assay.

[2] = tested on: CaR-1; format: functional, cell-based, Homo sapiens; conditions: Homo sapiens, CaR-1;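 also: growth inhibition of human CaR-1 cancer cells, read out with a cell viability assay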
Description: SANGER: Inhibition of human CaR-1 cell growth in a cell viability assay.

[3] = tested on: Calu-3; format: functional, cell-based, Homo sapiens; conditions: Homo sapiens, Calu-3;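 also: growth inhibition of human Calu-3 cells, determined with a cell viability assay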
Description: SANGER: Inhibition of human Calu-3 cell growth in a cell viability assay.

[4] = tested on: ChaGo-K-1; format: functional, cell-based; conditions: Homo sapiens;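 also: growth inhibition of ChaGo-K-1 cells, read out with a cell viability assay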
Description: SANGER: Inhibition of human ChaGo-K-1 cell growth in a cell viability assay.

[5] = tested on: D-542MG; format: functional, cell-based, Homo sapiens; conditions: Homo sapiens, D-542MG
Description: SANGER: Inhibition of human D-542MG cell growth in a cell viability assay.

[6] = tested on: DEL; format: functional, cell-based; conditions: Homo sapiens;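 also: growth inhibition of the human DEL cell line, read out with a cell viability assay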
Description: SANGER: Inhibition of human DEL cell growth in a cell viability assay.

[7] = tested on: DU-4475; format: functional, cell-based; conditions: Homo sapiens
Description: SANGER: Inhibition of human DU-4475 cell growth in a cell viability assay.

[8] = tested on: HCT-116; format: functional, cell-based, Homo sapiens; conditions: Homo sapiens, HCT-116
Description: SANGER: Inhibition of human HCT-116 cell growth in a cell viability assay.

[9] = tested on: HEC-1; format: functional, cell-based, Homo sapiens; conditions: Homo sapiens, HEC-1;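 also: growth inhibition of the cell line, read out with a cell viability assay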
Description: SANGER: Inhibition of human HEC-1 cell growth in a cell viability assay.

[10] = tested on: HL-60; format: functional, cell-based; conditions: Homo sapiens;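 also: growth inhibition of human HL-60 cells, read out with a cell viability assay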
Description: SANGER: Inhibition of human HL-60 cell growth in a cell viability assay.

[11] = tested on: HPAF-II; format: functional, cell-based, Homo sapiens; conditions: Homo sapiens, HPAF-II;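 also: growth inhibition of HPAF-II cells, read out with a cell viability assay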
Description: SANGER: Inhibition of human HPAF-II cell growth in a cell viability assay.

[12] = tested on: HT1197; format: functional, cell-based, Homo sapiens, HT-1197; conditions: Homo sapiens, HT1197
Description: SANGER: Inhibition of human HT-1197 cell growth in a cell viability assay.

[13] = tested on: HT-144; format: functional, cell-based, Homo sapiens; conditions: Homo sapiens, HT-144
Description: SANGER: Inhibition of human HT-144 cell growth in a cell viability assay.

[14] = tested on: JAR; format: functional, cell-based, Homo sapiens; conditions: Homo sapiens, JAR;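 also: growth inhibition of human JAR cells determined with a cell viability assay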
Description: SANGER: Inhibition of human JAR cell growth in a cell viability assay.

[15] = tested on: KARPAS-299; format: functional, cell-based; conditions: Homo sapiens
Description: SANGER: Inhibition of human KARPAS-299 cell growth in a cell viability assay.

[16] = tested on: LNCaP-Clone-FGC; format: functional, cell-based, Homo sapiens; conditions: Homo sapiens, LNCaP-Clone-FGC
Description: SANGER: Inhibition of human LNCaP-Clone-FGC cell growth in a cell viability assay.

[17] = tested on: MZ2-MEL; format: functional, cell-based, Homo sapiens; conditions: Homo sapiens, MZ2-MEL;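 also: growth inhibition of MZ2-MEL cells read out with a cell viability assay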
Description: SANGER: Inhibition of human MZ2-MEL cell growth in a cell viability assay.

[18] = tested on: NCI-H1563; format: functional, cell-based, Homo sapiens; conditions: Homo sapiens, NCI-H1563;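 also: growth inhibition of human NCI-H1563 cells, read out with a cell viability assay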
Description: SANGER: Inhibition of human NCI-H1563 cell growth in a cell viability assay.

[19] = tested on: NCI-H1693; format: functional, cell-based, Homo sapiens; conditions: Homo sapiens, NCI-H1693;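 also: growth inhibition of the human cell line, read out with a cell viability assay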
Description: SANGER: Inhibition of human NCI-H1693 cell growth in a cell viability assay.

[20] = tested on: NCI-H1770; format: functional, cell-based; conditions: Homo sapiens;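 also: growth inhibition of NCI-H1770 cells determined with a viability readout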
Description: SANGER: Inhibition of human NCI-H1770 cell growth in a cell viability assay.

[21] = tested on: NCI-H209; format: functional, cell-based; conditions: Homo sapiens;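 also: growth inhibition of human NCI-H209 cells, measured by a cell viability assay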
Description: SANGER: Inhibition of human NCI-H209 cell growth in a cell viability assay.

[22] = tested on: NCI-H2228; format: functional, cell-based, Homo sapiens; conditions: Homo sapiens, NCI-H2228;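 also: growth inhibition of human NCI-H2228 cells, read out by a cell viability assay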
Description: SANGER: Inhibition of human NCI-H2228 cell growth in a cell viability assay.

[23] = tested on: NCI-H23; format: functional, cell-based, Homo sapiens; conditions: Homo sapiens, NCI-H23;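 also: cell viability assay measuring growth inhibition of NCI-H23 cells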
[24] = tested on: NCI-H358; format: functional, cell-based, Homo sapiens; conditions: Homo sapiens, NCI-H358;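 also: growth inhibition of NCI-H358 human cells, read out with a cell viability assay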
Description: SANGER: Inhibition of human NCI-H358 cell growth in a cell viability assay.

[25] = tested on: NCI-H526; format: functional, cell-based; conditions: Homo sapiens;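 also: growth inhibition of the human NCI-H526 cell line, measured by a cell viability assay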
Description: SANGER: Inhibition of human NCI-H526 cell growth in a cell viability assay.

[26] = tested on: NCI-H650; format: functional, cell-based, Homo sapiens; conditions: Homo sapiens, NCI-H650;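 also: growth inhibition of NCI-H650 cells, read out by a viability assay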
Description: SANGER: Inhibition of human NCI-H650 cell growth in a cell viability assay.

[27] = tested on: NCI-H661; format: functional, cell-based, Homo sapiens; conditions: Homo sapiens, NCI-H661;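 also: cell viability assay read-out, IC50 being the concentration that inhibits growth of the cells by half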
Description: SANGER: Inhibition of human NCI-H661 cell growth in a cell viability assay.

[28] = tested on: SNU1; format: functional, cell-based; conditions: Homo sapiens;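 also: growth inhibition of human NCI-SNU-1 cells, measured with a cell viability assay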
Description: SANGER: Inhibition of human NCI-SNU-1 cell growth in a cell viability assay.

[29] = tested on: OVCAR-8; format: functional, cell-based, Homo sapiens; conditions: Homo sapiens, OVCAR-8;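 also: growth inhibition of human OVCAR-8 cells, read out by a cell viability assay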
Description: SANGER: Inhibition of human OVCAR-8 cell growth in a cell viability assay.

[30] = tested on: PFSK-1; format: functional, cell-based, Homo sapiens; conditions: Homo sapiens, PFSK-1;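 also: cell viability assay measuring how strongly compounds suppress growth of human PFSK-1 cells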
Description: SANGER: Inhibition of human PFSK-1 cell growth in a cell viability assay.

[31] = tested on: RMG-I; format: functional, cell-based, Homo sapiens; conditions: Homo sapiens, RMG-I;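 also: growth inhibition of human RMG-I cells, read out with a cell viability assay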
Description: SANGER: Inhibition of human RMG-I cell growth in a cell viability assay.

[32] = tested on: RVH-421; format: functional, cell-based, Homo sapiens; conditions: Homo sapiens, RVH-421
Description: SANGER: Inhibition of human RVH-421 cell growth in a cell viability assay.

[33] = tested on: S-117; format: functional, cell-based, Homo sapiens; conditions: Homo sapiens, S-117
Description: SANGER: Inhibition of human S-117 cell growth in a cell viability assay.

[34] = tested on: SK-HEP1; format: functional, cell-based, Homo sapiens, SK-HEP-1; conditions: Homo sapiens, SK-HEP1;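 also: cell viability readout used to quantify reduction in proliferation of human SK-HEP-1 cells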
Description: SANGER: Inhibition of human SK-HEP-1 cell growth in a cell viability assay.

[35] = tested on: SK-LMS-1; format: functional, cell-based, Homo sapiens; conditions: Homo sapiens, SK-LMS-1;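 also: growth inhibition of human SK-LMS-1 cells, read out with a cell viability assay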
Description: SANGER: Inhibition of human SK-LMS-1 cell growth in a cell viability assay.

[36] = tested on: SK-MEL-1; format: functional, cell-based; conditions: Homo sapiens;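 also: growth inhibition of human SK-MEL-1 cells, read out by a cell viability assay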
Description: SANGER: Inhibition of human SK-MEL-1 cell growth in a cell viability assay.

[37] = tested on: SW872; format: functional, cell-based, Homo sapiens; conditions: Homo sapiens, SW872;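 also: growth inhibition of SW872 cells, read out by a viability assay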
Description: SANGER: Inhibition of human SW872 cell growth in a cell viability assay.

[38] = tested on: T47D; format: functional, cell-based, Homo sapiens; conditions: Homo sapiens, T47D;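 also: growth inhibition of human T47D cells, measured with a cell viability assay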
Description: SANGER: Inhibition of human T47D cell growth in a cell viability assay.

[39] = tested on: A-431; format: functional, cell-based, Homo sapiens; conditions: Homo sapiens, A-431;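 also: growth inhibition of A-431 cells, determined with a cell viability read-out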
Description: SANGER: Inhibition of human A431 cell growth in a cell viability assay.

[40] = tested on: ACHN; format: functional, cell-based, Homo sapiens; conditions: Homo sapiens, ACHN;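 also: cell viability read-out used to gauge how strongly growth of human ACHN cells is suppressed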
Description: SANGER: Inhibition of human ACHN cell growth in a cell viability assay.

[41] = tested on: ACN; format: functional, cell-based, Homo sapiens; conditions: Homo sapiens, ACN;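 also: growth inhibition of the human ACN cell line, read out via cell viability testing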
Description: SANGER: Inhibition of human ACN cell growth in a cell viability assay.

[42] = tested on: BB65-RCC; format: functional, cell-based, Homo sapiens; conditions: Homo sapiens, BB65-RCC;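 also: growth inhibition of the cell line, measured with a cell viability assay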
Description: SANGER: Inhibition of human BB65-RCC cell growth in a cell viability assay.

[43] = tested on: BEN; format: functional, cell-based, Homo sapiens; conditions: Homo sapiens, BEN;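 also: growth inhibition of the BEN cell line, read out with a cell viability assay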
Description: SANGER: Inhibition of human BEN cell growth in a cell viability assay.

[44] = tested on: C3A; format: functional, cell-based, Homo sapiens; conditions: Homo sapiens, C3A;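 also: growth inhibition of C3A human cells, quantified with a cell viability readout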
Description: SANGER: Inhibition of human C3A cell growth in a cell viability assay.

[45] = tested on: CAL-62; format: functional, cell-based, Homo sapiens; conditions: Homo sapiens, CAL-62;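 also: growth inhibition of CAL-62 cells, read out with a cell viability assay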
Description: SANGER: Inhibition of human CAL-62 cell growth in a cell viability assay.

[46] = tested on: TE-5; format: functional, cell-based, Homo sapiens; conditions: Homo sapiens, TE-5;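 also: inhibition of cell growth, read out by a cell viability assay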
Description: SANGER: Inhibition of human TE-5 cell growth in a cell viability assay.

[47] = tested on: TE-8; format: functional, cell-based, Homo sapiens; conditions: Homo sapiens, TE-8;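 also: growth inhibition of TE-8 cells, measured with a cell viability readout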
Description: SANGER: Inhibition of human TE-8 cell growth in a cell viability assay.

[48] = tested on: UACC-257; format: functional, cell-based, Homo sapiens; conditions: Homo sapiens, UACC-257
Description: SANGER: Inhibition of human UACC-257 cell growth in a cell viability assay.

[49] = tested on: UMUC3; format: functional, cell-based, Homo sapiens; conditions: Homo sapiens, UMUC3;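 also: growth inhibition of human UM-UC-3 cells, read out with a cell viability assay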
Description: SANGER: Inhibition of human UM-UC-3 cell growth in a cell viability assay.

[50] = tested on: no-11; format: functional, cell-based, Homo sapiens; conditions: Homo sapiens;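 also: growth inhibition of human NO-11 cells, read out with a cell viability assay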
Description: SANGER: Inhibition of human no-11 cell growth in a cell viability assay.

[51] = tested on: COLO-684; format: functional, cell-based; conditions: Homo sapiens
Description: SANGER: Inhibition of human COLO-684 cell growth in a cell viability assay.

Measured: IC50

CN(C)C/C=C/C(=O)Nc1cc2c(Nc3ccc(F)c(Cl)c3)ncnc2cc1O[C@H]1CCOC1 [AFATINIB]
103 nM: [20]
482 nM: [39]
78.2 nM: [25]
205 nM: [21]
320 nM: [40]
346 nM: [42]
> 500 nM: all other assays above

O=c1cc(-c2cccc3c2Sc2ccccc2S3)oc(N2CCOCC2)c1 [KU-55933]
not listed: [21]
> 10000 nM: all other assays above

— ChEMBL document CHEMBL1201861, “Genomics of Drug Sensitity in Cancer screening data, Wellcome Trust Sanger Institute”
